Patent US5880147A, “Amide derivatives having ACAT inhibitory activity, their preparation and their therapeutic and prohylactic use” (Sankyo Company, Limited, priority 1995, dated 1999)

The compounds below were run against T1, ACAT (acyl-CoA: cholesterol acyl transferase) (Mus musculus, UniProt Q61263) (assay: Inhibition of ACAT in M.phi. (mouse peritoneal macrophages)). Conditions: β-VLDL 50 μg cholesterol/ml, [14C]oleate-albumin, 37° C., 3 hours.
T1 construct: endogenous in cells; host or cells: primary adherent peritoneal macrophages from unstimulated female DDY mice
T1 sequence (Q61263 1-540): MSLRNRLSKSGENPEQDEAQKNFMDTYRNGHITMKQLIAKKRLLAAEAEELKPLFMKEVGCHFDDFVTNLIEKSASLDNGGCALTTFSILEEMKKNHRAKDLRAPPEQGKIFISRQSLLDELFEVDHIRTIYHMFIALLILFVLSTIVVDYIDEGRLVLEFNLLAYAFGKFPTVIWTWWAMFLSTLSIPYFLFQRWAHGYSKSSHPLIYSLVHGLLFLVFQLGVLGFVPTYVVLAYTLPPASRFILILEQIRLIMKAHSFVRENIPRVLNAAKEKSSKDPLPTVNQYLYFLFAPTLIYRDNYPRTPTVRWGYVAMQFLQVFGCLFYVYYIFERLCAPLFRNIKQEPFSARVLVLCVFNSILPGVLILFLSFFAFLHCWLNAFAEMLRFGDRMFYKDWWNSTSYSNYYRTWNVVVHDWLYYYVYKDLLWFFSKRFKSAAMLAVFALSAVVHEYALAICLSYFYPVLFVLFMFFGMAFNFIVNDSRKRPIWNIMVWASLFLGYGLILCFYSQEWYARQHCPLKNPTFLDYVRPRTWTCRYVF
Format: cell-based, mouse (female DDY mice)
Protocol: Blood was obtained [using the anticoagulant ethylene diamine tetraacetic acid (5 mM)] from Japanese White rabbits which had been fed a 2% w/w cholesterol diet for 2 weeks and then fasted overnight prior to removing the blood. β-VLDL (d<1.006 g/ml) was isolated by ultracentrifugation from the plasma according to the method of Hatch and Lees [Hatch, F T. and Lees, R S.,Adv. Lipid Res., 6 1-68 (1968)] and dialyzed at 4° C. against 10 mM of a sodium phosphate buffer (pH 7.4) containing 150 mM sodium chloride.
Peritoneal cells were harvested from unstimulated female DDY mice (body weight 20-30 g) in phosphate buffer saline (PBS) as described by Edelson and Cohn [Edelson, P J. and Cohn, Z A.,1976, "In Vitro Methods in Cell-Mediated and Tumor Immunity", editors Bloon, B R and David, J R., (Academic Press, New York), 330-340.]. The fluid from the mice was pooled and the cells were collected by centrifugation at 400×g for 10 minutes at 4° C., and washed once with PBS. The cells were resuspended in Dulbecco's modified Eagle's medium (DMEM) containing 10% (vol/vol) fetal calf serum (FCS), penicillin (100 units/ml), and streptomycin (100 μg/ml) at a final concentration of 3×10^6 cells per ml. Aliquots (1 ml) of this cell suspension were dispersed onto plastic petri dishes (35×10 mm) and then incubated in a CO2 incubator (5% CO2 /95% air) at 37° C. for 2 hours. Each dish was washed twice with PBS without serum to remove nonadherent cells.
Inhibition of ACAT in M.phi. was determined according to the method described by Brown et al. Brown, M S., Goldstein J L., Krieger, M., Ho, Y K. and Anderson, R G W. (1979) J. Cell Biol., 82, 597-613.]. Cholesterol reacylation was initiated by adding β-VLDL (final concentration 50 μg cholesterol/ml), [^14 C]oleate-albumin complex (final concentrations: 0.2 mM oleate and 0.6 mg/ml albumin) and a test compound dissolved in ethanol into the M.phi. monolayer, and the preparation was incubated at 37° C. for 3 hours in a CO2 incubator. Cells were washed three times with PBS and cellular lipid was extracted with 1 ml hexane/isopropanol (3:2 vol/vol). A lipid extract was evaporated to dryness in a stream of nitrogen. Cholesterol [^14 C]oleated was seperated by thin layer chromatography through silica gel using an 85:15:1 by volume mixture of hexane, diethyl ether and acetic acid as developing solvents. The ACAT activity in M.phi. was determined by measuring the radioactivity and an inhibition rate (%) was calculated by comparing a control activity with those of the test compound at given concentrations. The results are shown in the following Table, in which the compounds of the present invention are identified by the number of the Example given hereafter in which they are prepared.

SMILES | IC50 [nM]
CCCCCC(CC(=O)Nc1cc(CC(=O)NC)ccc1C(C)(C)C)c1ccc(OC)cc1OC (stereo not drawn) [Example 3] | 31.1
CCCCCC(CC(=O)Nc1cc(CNC(=O)NC(C)C)ccc1C(C)(C)C)c1cccc2c1OCCO2 (stereo not drawn) [Example 173, N-[2-t-Butyl-5-(N'-isopropylureidomethyl)phenyl]-3-(2,3-ethylenedioxyphenyl)octanamide] | 17.6
CCCCCC(CC(=O)Nc1cc(CC#N)ccc1C(C)(C)C)c1ccc(OC)cc1OC (stereo not drawn) [Example 19, N-(2-t-Butyl-5-cyanomethylphenyl)-3-(2,4-dimethoxyphenyl)octanamide] | 28.8
CCCCCC(CC(=O)Nc1cc(CNC(=O)c2cccnc2)ccc1C(C)(C)C)c1ccc(OC)cc1OC (stereo not drawn) [Example 158, N-[2-t-Butyl-5-(N'-3-pyridylcarbonylaminomethyl)phenyl]-3-(2,4-dimethoxyphenyl)octanamide] | 18
CCCCCC(CC(=O)Nc1cc(CN2C(=O)c3ccccc3C2=O)ccc1C(C)(C)C)c1cccc2c1OCCO2 (stereo not drawn) [Example 142, N-[2-t-Butyl-5-(phthalimidomethyl)phenyl]-3-(2,3-ethylenedioxyphenyl)octanamide] | 35.2
CCCCCC(CC(=O)Nc1cc(C(=O)Nc2ccccn2)ccc1C(C)(C)C)c1c(OC)cccc1OC (stereo not drawn) [Example 165, N-{2-t-Butyl-5-[N-(2-pyridyl)carbamoyl]phenyl}-3-(2,6-dimethoxyphenyl)octanamide] | 1.37
CCCCCC(CC(=O)Nc1cc(CNS(=O)(=O)CC)ccc1C(C)(C)C)c1ccc(OC)cc1OC (stereo not drawn) [Example 11, N-[2-t-Butyl-5-(ethylsulfonylaminomethyl)phenyl]-3-(2,4-dimethoxyphenyl)octanamide] | 9.76
CCCCCC(CC(=O)Nc1cc(CC(N)=O)ccc1C(C)(C)C)c1ccc(OC)cc1OC (stereo not drawn) [Example 4, N-[2-t-Butyl-5-(carbamoylmethyl)phenyl]-3-(2,4-dimethoxyphenyl)octanamide] | 5.97
CCCCCC(CC(=O)Nc1cc(COC(N)=O)ccc1C(C)(C)C)c1ccc(OC)cc1OC (stereo not drawn) [Example 5, N-[2-t-Bu=l-5-(carbamoyloxymethyl)phenyl]-3-(2,4-dimethoxyphenyl)octanamide] | 68.1
CCCCCC(CC(=O)Nc1cc(CNC(=O)N(C)C)ccc1C(C)(C)C)c1ccc(OC)cc1OC (stereo not drawn) [Example 23, N-[2-t-Butyl-5-(N',N'-dimethylaminocarbonylaminomethyl)phenyl]-3-(2,4-dimethoxyphenyl)octanamide] | 10.6

Next, values leading:

IC50 [nM] | SMILES
41.8 | CCCCCC(CC(=O)Nc1cc(C(N)=O)ccc1C(C)(C)C)c1ccc(OC)cc1OC (stereo not drawn) [Example 2, N-(2-t-Butyl-5-carbamoylphenyl)-3-(2,4-dimethoxyphenyl)octanamide]
59.7 | CCCCCC(CC(=O)Nc1cc(C(=O)NC)ccc1C(C)(C)C)c1ccc(OC)cc1OC (stereo not drawn) [Example 1, N-(2-t-Butyl-5-N'-methylcarbamoylphenyl)-3-(2,4-dimethoxphenyl)octanamide]
23.5 | CCCCCCC(CC(=O)Nc1cc(C(N)=O)ccc1C(C)(C)C)c1ccc(OC)cc1OC (stereo not drawn) [Example 44, N-(2-t-Butyl-5-carbamoylphenyl)-3-(2,4-dimethoxyphenyl)nonanamide]
17.3 | CCCCCC(CC(=O)Nc1cc(C(=O)NC(=O)C(C)C)ccc1C(C)(C)C)c1ccc(OC)cc1OC (stereo not drawn) [Example 131, N-[2-t-Butyl-5-(2-methylpropanoyl)aminocarbonylphenyl)-3-(2,4-dimethoxyphenyl]octanamide]
29.9 | CCCCCC(CC(=O)Nc1cc(C(=O)NC)ccc1C(C)(C)C)c1ccc(OCC(=O)NCCCC)cc1OC (stereo not drawn) [Example 64, N-(2-t-Butyl-5-N'-methylcarbamoylphenyl)-3-(4-N"-butylcarbamoylmethloxy-2-methoxyphenyl)octanamide]
62.8 | CCCCCC(CC(=O)Nc1cc(C(=O)NC)ccc1C(C)(C)C)c1cc(C(=O)NC)c(OC)cc1OC (stereo not drawn) [Example 35, N-(2-t-Butyl-5-N'-methylcarbamoylphenyl)-3-(2,4-dimethoxy-5-N"-methylcarbamoylphenyl)octanamide]
9.65 | CCCCCC(CC(=O)Nc1cc(C(=O)NC(=O)c2cccnc2)ccc1C(C)(C)C)c1ccc(OC)cc1OC (stereo not drawn) [Example 136, N-{2-t-Butyl-5-[(3-pyridyl)carbonlaminocarbonyl]phenyl}-3-(2,4-dimethoxyphenyl)octanamide]
79.7 | CCCCCC(CC(=O)Nc1cc(CCC(=O)NC)ccc1C(C)(C)C)c1cc(OC)c(OC)cc1OC (stereo not drawn) [Example 186, N-[2-t-Butyl-5-(3-methylamino-3-oxopropyl)phenyl]-3-(2,4,5-trimethoxyphenyl)octanamide]
